From publication PMC8645336, “Benchmarking a highly selective USP30 inhibitor for enhancement of mitophagy and pexophagy” (Life Science Alliance, 2021) come the findings set out here.

The structures appear in SMILES notation.

Assay [1] deals with USP20 (Homo sapiens, UniProt Q9Y2K6). Description: biochemical. The arrangement: Ubiquigent DUB profiler selectivity panel, remaining enzyme activity as % of control. Particulars: read-out: % of control remaining. In a few lines: (§1)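 CMPD-39 selectivity was profiled at 1-100 μM across >40 DUBs. Cellular engagement used 2 h CMPD-39 pretreatment, then HA-Ub-PA probe for 10 min at 37°C, with USP30 band shift on immunoblot. TOMM20 ubiquitylation was blotted in YFP-PRKN hTERT-RPE1 cells after 1 h antimycin A/oligomycin A (1 μM each).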

Assay [2] addresses T1, USP4 (Homo sapiens, UniProt Q13107).
T1 sequence (Q13107 1-963): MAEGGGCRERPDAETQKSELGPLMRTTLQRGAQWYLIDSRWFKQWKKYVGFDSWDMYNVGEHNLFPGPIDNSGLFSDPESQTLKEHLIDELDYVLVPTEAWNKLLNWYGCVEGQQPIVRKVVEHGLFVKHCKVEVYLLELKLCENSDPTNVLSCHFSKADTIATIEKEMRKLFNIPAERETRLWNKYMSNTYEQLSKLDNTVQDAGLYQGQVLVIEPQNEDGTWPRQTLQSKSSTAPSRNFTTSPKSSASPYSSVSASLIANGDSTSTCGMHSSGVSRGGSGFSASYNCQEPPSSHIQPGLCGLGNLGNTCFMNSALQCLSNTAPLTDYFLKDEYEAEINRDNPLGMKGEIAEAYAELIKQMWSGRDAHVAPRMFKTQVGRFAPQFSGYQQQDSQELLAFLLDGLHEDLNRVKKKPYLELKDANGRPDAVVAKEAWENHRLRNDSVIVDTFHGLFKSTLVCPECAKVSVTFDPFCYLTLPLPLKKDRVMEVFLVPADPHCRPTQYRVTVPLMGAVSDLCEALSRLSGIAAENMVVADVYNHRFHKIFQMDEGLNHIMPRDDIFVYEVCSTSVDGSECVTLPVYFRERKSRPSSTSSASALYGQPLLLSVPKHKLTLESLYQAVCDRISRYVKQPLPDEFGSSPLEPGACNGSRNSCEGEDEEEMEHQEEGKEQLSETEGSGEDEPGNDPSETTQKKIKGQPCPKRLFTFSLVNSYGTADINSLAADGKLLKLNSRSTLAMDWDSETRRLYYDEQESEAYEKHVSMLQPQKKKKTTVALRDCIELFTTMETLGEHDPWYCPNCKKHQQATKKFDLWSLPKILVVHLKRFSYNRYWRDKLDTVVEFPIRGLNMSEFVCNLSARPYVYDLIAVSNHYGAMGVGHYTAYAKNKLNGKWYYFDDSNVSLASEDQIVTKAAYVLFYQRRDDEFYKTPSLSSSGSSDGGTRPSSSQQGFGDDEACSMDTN
As to the kind of experiment: biochemical. The arrangement: Ubiquigent DUB profiler selectivity panel, remaining enzyme activity as % of control. Particulars: read-out: % of control remaining. In a few lines:
as §1

Chain of USP20 (Q9Y2K6 whole entry): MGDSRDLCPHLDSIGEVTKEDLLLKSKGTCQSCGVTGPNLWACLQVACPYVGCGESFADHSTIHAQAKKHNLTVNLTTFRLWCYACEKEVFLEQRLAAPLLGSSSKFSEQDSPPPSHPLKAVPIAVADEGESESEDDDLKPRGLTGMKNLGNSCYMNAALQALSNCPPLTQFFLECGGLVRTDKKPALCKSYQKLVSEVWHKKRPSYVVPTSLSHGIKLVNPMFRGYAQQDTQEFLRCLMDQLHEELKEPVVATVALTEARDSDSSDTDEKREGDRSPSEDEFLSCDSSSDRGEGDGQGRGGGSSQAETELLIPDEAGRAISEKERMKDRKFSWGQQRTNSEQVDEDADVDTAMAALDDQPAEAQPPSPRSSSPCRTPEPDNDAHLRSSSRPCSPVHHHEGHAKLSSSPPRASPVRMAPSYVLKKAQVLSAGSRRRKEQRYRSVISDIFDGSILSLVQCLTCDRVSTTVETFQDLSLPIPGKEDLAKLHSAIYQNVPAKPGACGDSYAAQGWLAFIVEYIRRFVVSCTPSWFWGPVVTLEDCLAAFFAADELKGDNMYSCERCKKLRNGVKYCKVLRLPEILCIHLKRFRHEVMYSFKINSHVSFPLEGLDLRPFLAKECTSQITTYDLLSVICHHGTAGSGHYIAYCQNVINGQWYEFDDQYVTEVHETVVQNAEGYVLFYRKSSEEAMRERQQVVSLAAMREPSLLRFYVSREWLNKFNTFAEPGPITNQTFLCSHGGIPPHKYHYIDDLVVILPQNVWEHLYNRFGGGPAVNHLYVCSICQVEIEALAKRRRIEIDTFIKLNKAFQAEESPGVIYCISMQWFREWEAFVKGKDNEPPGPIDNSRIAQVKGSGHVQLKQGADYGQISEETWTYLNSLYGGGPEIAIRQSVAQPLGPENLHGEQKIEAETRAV

Take `CC(C)(C)NS(=O)(=O)c1ccc(NC(=O)[C@H](Cc2ccccc2)NC(=O)c2ccc(F)cc2)cc1` [compound 39, CMPD-39]: in assay [1], the remaining activity at 1 µM amounted to 113%, the remaining activity at 10 µM stood at 110% and the remaining activity at 100 µM is 155%. Further, in assay [2], the remaining activity at 1 µM was 107%, the remaining activity at 10 µM amounted to 103% and the remaining activity at 100 µM is 98.9%.
